Experiment [1] concerns cultured human mast cells. The experiment is described as follows: Degranulation inhibition test using cultured human mast cells (IgE cross-linking, β-Hexosaminidase release). The following applies: Mast cell, cultured human mast cells, read-out: human degranulation ave. IC50. The experiment is classed as cell-based. The method, boiled down:
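CD34+ cord-blood cells cultured ≥8 weeks with SCF/IL-6/IL-3; FcεRI primed 5 days with rhIL-4 (1 ng/mL) and hIgE (0.5 μg/mL). Compound (0.1% DMSO) preincubated 10 min at 37 °C, then anti-IgE (final 10 μg/mL) 30 min; released β-hexosaminidase read at 405 nm versus total lysate, IC50 (M).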

For experiment [2], the target named is GST-Syk Full Protein (human) (Homo sapiens, UniProt P43405). The experiment can be described thus: Syk kinase inhibition test (HTRF method). Type of experiment: biochemical. The method, boiled down: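 Human GST-Syk full-length (6.4 nM) phosphorylated biotin-EDPDYEWPSA-NH2 (250 nM) with 100 μM ATP in HEPES pH 7.0/MgCl2 buffer, 2% DMSO, 30 min at room temperature. EDTA stop, then HTRF detection (streptavidin-XL665, Eu anti-phosphotyrosine) after 1 h; 665/620 ratio read.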
(In general: Time-resolved FRET reads energy transfer from a long-lived donor to a nearby acceptor.)

Where [3] appears, read: anti-hIgE stimulation, β-Hexosaminidase index, average.
The mark [4] stands for this setting: HTRF, 100 μM ATP, 30 min room temperature, average, read-out: sykHTRF ave IC50.
Where [5] appears, read: Tables 1-x, compounds A, read-out: sykHTRF ave IC50.
The mark [6] stands for this setting: Tables 2-x, thiophene compounds B.
Where [7] appears, read: Tables 2-x, thiophene compounds B, read-out: sykHTRK ave IC50.

Here are results for 15 molecules from patent US7803801B2, “Aminopyridine compounds having Syk inhibitory activity” (Japan Tobacco, Inc., priority 2005, dated 2010).

Broadly, the IC50 is the concentration needed to halve the response being measured.

Counter-ions that a name gives are not always drawn. Like-named read-outs stand apart in the source and are kept apart here.

In the case of `Cc1ccnc(Nc2cccc(-c3cnc([C@H]4CC[C@H](C(=O)N[C@@H](CO)Cc5cnc[nH]5)CC4)s3)n2)c1` [Compound A-303, N—[(R)-2-hydroxy-1-(3H-imidazol-4-ylmethyl)ethyl]-trans-4-{5-[6-(4-methylpyridin-2-ylamino)pyridin-2-yl]thiazol-2-yl}cyclohexanecarboxamide], the IC50 in experiment [1] (setting [3]) was more than 1000 nM; in experiment [2] (setting [4]), less than 100 nM.

For the molecule `CC(=O)c1ccnc(Nc2cccc(-c3cnc(N4CCC(C(N)=O)CC4)s3)n2)c1` [Compound A-543, 1-{5-[6-(4-acetylpyridin-2-ylamino)pyridin-2-yl]thiazol-2-yl}piperidine-4-carboxamide], the IC50 is 100 to 1000 nM in experiment [1] (Tables 1-x, compounds A) and less than 100 nM in experiment [2] (setting [5]).

Turning to `Cc1ccnc(Nc2cccc(-c3cnc([C@H]4CC[C@H](C(=O)N5CCC[C@@H]5CO)CC4)s3)n2)c1` [Compound A-286, ((R)-2-hydroxymethylpyrrolidin-1-yl)-(trans-4-{5-[6-(4-methylpyridin-2-ylamino)pyridin-2-yl]thiazol-2-yl}cyclohexyl)metanone], the values for the IC50 in experiment [1] (setting [3]) and in experiment [2] (setting [4]) were 100 to 1000 nM and less than 100 nM, respectively.

With `Cc1ccnc(Nc2cccc(-c3cnc(N(C)CC(=O)N[C@H](C(=O)O)C(C)C)s3)n2)c1` [Compound A-568, (S)-3-methyl-2-[2-(N-methyl-N-{5-[6-(4-methylpyridin-2-ylamino)pyridin-2-yl]thiazol-2-yl}amino)acetylamino]butyric acid dihydrochloride], the IC50 was more than 1000 nM in experiment [1] (Tables 1-x, compounds A) and less than 100 nM in experiment [2] (setting [5]).

For `CC(=O)N[C@H](c1ncc(-c2cccc(Nc3cc(C)ccn3)n2)s1)C(C)C` [Compound A-38], the IC50 in experiment [1] (setting [3]) and in experiment [2] (setting [4]) was 100 to 1000 nM throughout.

As to `COC(=O)N[C@@H](C)c1ncc(-c2cccc(Nc3cc(C)ccn3)n2)s1` [Compound A-57], the IC50 in experiment [1] (setting [3]) and in experiment [2] (setting [4]) was 100 to 1000 nM in each case.

As to `CNC(=O)N1CCC(N(C)c2ncc(-c3cccc(Nc4cc(C)ccn4)n3)s2)CC1` [Compound A-460, N-methyl-4-(N′-methyl-N′-{5-[6-(4-methylpyridin-2-ylamino)pyridin-2-yl]thiazol-2-yl}amino)piperidine-1-carboxamide], the IC50 is 100 to 1000 nM in experiment [1] (Tables 1-x, compounds A) and less than 100 nM in experiment [2] (setting [5]).

Turning to `Cc1ccnc(Nc2cccc(-c3cnc(N4CCC[C@@H](C(=O)O)C4)s3)n2)c1` [Compound A-531, (R)-1-{5-[6-(4-methylpyridin-2-ylamino)pyridin-2-yl]thiazol-2-yl}piperidine-3-carboxylic acid], the concentration for half-maximal inhibition (IC50) was 100 to 1000 nM in experiment [1] (Tables 1-x, compounds A) and less than 100 nM in experiment [2] (setting [5]).

With `Cc1ccnc(Nc2cccc(-c3sc(N4CCC(C(N)=O)CC4)nc3C)n2)c1` [Compound A-429, 1-{4-methyl-5-[6-(4-methylpyridin-2-ylamino)pyridin-2-yl]thiazol-2-yl}piperidine-4-carboxamide], the IC50 in experiment [1] (Tables 1-x, compounds A) is more than 1000 nM; in experiment [2] (setting [5]), less than 100 nM.

As for `Cc1ccnc(Nc2cccc(-c3cnc(CCNS(C)(=O)=O)s3)n2)c1` [Compound A-261], the IC50 in experiment [1] (setting [3]) and in experiment [2] (setting [4]) was 100 to 1000 nM each time.

As for `Cc1ccnc(Nc2cccc(-c3ccc(C(=O)NCC(C)O)s3)n2)c1` (stereo not drawn) [Compound B-41], the IC50 in experiment [1] (setting [6]) and in experiment [2] (setting [7]) was 100 to 1000 nM each time.

`CCOC(=O)c1nc([C@H](C)NC(C)=O)sc1-c1cccc(Nc2cc(C)ccn2)n1` [Compound A-102]: the IC50 in experiment [1] (setting [3]) and in experiment [2] (setting [4]) was more than 1000 nM each time.

For the molecule `Cc1ccnc(Nc2cccc(-c3cnc(C(=O)NCC(C)(C)CO)s3)n2)c1` [Compound A-62], the IC50 in experiment [1] (setting [3]) is more than 1000 nM; in experiment [2] (setting [4]) it was 100 to 1000 nM.

Regarding `CC(=O)c1ccc(-c2cccc(Nc3cc(CCO)ccn3)n2)s1` [Compound B-56], the IC50 in experiment [1] (setting [6]) and in experiment [2] (setting [7]) was 100 to 1000 nM throughout.

Turning to `CCc1ccc(-c2cccc(Nc3cc(C)ccn3)n2)s1` [Compound B-91], the values for the concentration for half-maximal inhibition (IC50) in experiment [1] (setting [6]) and in experiment [2] (setting [7]) were more than 1000 nM and 100 to 1000 nM, respectively.
